The record followed here is ChEMBL document CHEMBL1201862, “PubChem BioAssay data set” (2004).

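Cultured in 96-well plates, cells were exposed to test compound for 48 hours across five concentrations. GI50 is the concentration that inhibits growth by half.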 Activity calls are given as the source filed them. Cut-off read from the data, not from the text of the source: active = GI50 up to about 1.1 µM and inactive = higher.

What all share (assay): NCI-60 cell line screen, 48 h
Assay [1] deals with HOP-62.
Assay [2] concerns SNB-19.
Assay [3] deals with DU-145.
Assay [4] has as its system SNB-75.
Assay [5] concerns MDA-MB-231.
In assay [6] the test system is U-251.
Assay [7] deals with SF-539.
Assay [8] has as its system OVCAR-5.
The subject of assay [9] is A549.
For assay [10], the system named is 786-0.
Assay [11] relates to HCT-116.
In assay [12] the test system is SK-MEL-5.
The test system of assay [13] is CAKI-1.
For assay [14], the system named is M14.
The subject of assay [15] is MOLT-4.
The test system of assay [16] is NCI-H23.
Assay [17] has as its system SK-MEL-2.
Assay [18] relates to SR.
In assay [19] the test system is MDA-N.

As to `Brc1ccc2c(-c3csc(-c4c[nH]c5ccccc45)n3)c[nH]c2c1`, the GI50 in assay [1] was 15 µM (inactive); in assay [2] it was 17.8 µM (inactive); in assay [3], 18.8 µM (inactive); in assay [4], 24.4 µM (inactive); in assay [5], 16.1 µM (inactive); in assay [6], 17.9 µM (inactive). For the same molecule, the GI50 in [7] is 16 µM (inactive); in [8] it was 16.1 µM (inactive); in assay [9], 15.8 µM (inactive); in assay [10], 17.9 µM (inactive); in assay [11] it was 14.7 µM (inactive); in assay [12], 15.3 µM (inactive). Also, the GI50 is 15.8 µM (inactive) in assay [13] and 14.3 µM (inactive) in assay [14].

With `COc1cc(Nc2cnc3ccc(C(F)(F)F)cc3n2)cc(OC)c1OC`, the GI50 is 23.9 µM (inactive) in assay [1]; > 100 µM (inactive) in assay [2]; 39.7 µM (inactive) in assay [15]; > 100 µM (inactive) in assay [6]; 32.1 µM (inactive) in assay [7]; > 100 µM (inactive) in assay [8]. The GI50 in [9] was 20.4 µM (inactive); in assay [10], 13.5 µM (inactive); in [11], 45.8 µM (inactive); in assay [16] it was > 100 µM (inactive); in assay [17], 24.7 µM (inactive); in assay [18], > 100 µM (inactive).

As to `COc1ccccc1CNC(=O)[C@H](Cc1ccc(O)cn1)NC(C)=O`, the GI50 in [1], in assay [2], in [3], in assay [6], in [7] and in assay [8] was > 100 µM (inactive) each time. Further, the GI50 in assay [9], in assay [19], in assay [10], in assay [11], in assay [16] and in [12] was > 100 µM (inactive) each time. For the same molecule, the GI50 in assay [17], in assay [18], in assay [13] and in assay [14] was > 100 µM (inactive) each time.

`CCOC(=O)/C(=C\n1c(=O)sc2ccccc21)C(=O)c1ccccc1`: the GI50 was > 100 µM (inactive) in assay [1]; > 100 µM (inactive) in [15]; > 100 µM (inactive) in assay [3]; 53.8 µM (inactive) in assay [4]; 63 µM (inactive) in assay [5]; > 100 µM (inactive) in [6]. The GI50 in assay [7], in assay [8], in assay [9], in [10], in assay [11] and in assay [16] was > 100 µM (inactive) each time. The GI50 was 54.2 µM (inactive) in [12]; > 100 µM (inactive) in [17]; 58.7 µM (inactive) in assay [18]; 25.4 µM (inactive) in assay [13]; > 100 µM (inactive) in assay [14].

Regarding `Cn1c(N(CCO)CCO)cnc1[N+](=O)[O-]`, the GI50 in [1], in assay [2], in assay [15], in [4], in [5] and in assay [6] was > 100 µM (inactive) each time. Moreover, the GI50 in assay [7], in assay [8], in assay [9], in assay [19], in assay [10] and in [11] was > 100 µM (inactive) each time. In addition, the GI50 in [16], in assay [12], in [17], in [18], in assay [13] and in [14] was > 100 µM (inactive) each time.

As for `[O-][S+](CC1(O)CCCCC1)c1ccccc1` (centres undefined), the GI50 in assay [1], in assay [2], in assay [15], in assay [3], in assay [4] and in assay [5] was > 100 µM (inactive) throughout. Further, the GI50 in assay [6], in assay [8], in assay [9], in [10], in assay [11] and in assay [16] was > 100 µM (inactive) in each case. The GI50 in assay [12], in assay [17], in assay [18], in assay [13] and in assay [14] was > 100 µM (inactive) in each case.

Regarding `N#C[C@H]1C(=O)C(c2nc3ccccc3[nH]2)S[C@H]1c1ccccc1` (some centres undefined), the GI50 in [2] is 45.4 µM (inactive); in assay [15], 33.7 µM (inactive); in assay [3], 45.1 µM (inactive); in [6], 22.6 µM (inactive); in assay [8], 92.9 µM (inactive); in assay [9] it was 45.4 µM (inactive). The GI50 in assay [10] is 19.1 µM (inactive); in [11], 27.4 µM (inactive); in [16], 27.5 µM (inactive); in [12], 25.2 µM (inactive); in assay [18], 28.8 µM (inactive); in assay [13] it was 38.6 µM (inactive). Further, the GI50 in [14] is 33.3 µM (inactive).

Turning to `CN(C)C(=S)/N=c1\ss/c(=N\C(=S)N(C)C)n1-c1ccc(Cl)c(Cl)c1`, the GI50 is 40.6 µM (inactive) in [1]; > 100 µM (inactive) in assay [2]; > 100 µM (inactive) in assay [15]; 27.1 µM (inactive) in assay [4]; > 100 µM (inactive) in [6]; > 100 µM (inactive) in assay [7]. Further, the GI50 in assay [8], in assay [9], in assay [10], in [11], in [16] and in [12] was > 100 µM (inactive) each time. Further, the GI50 in [17], in assay [18], in assay [13] and in [14] was > 100 µM (inactive) in each case.

Take `COc1ccc(OC)c([N+](=O)[O-])c1-c1nc2sc(C)c(C)n2c1/C=N/N=C(N)N`: the GI50 in [1] is > 100 µM (inactive); in assay [2], 36.3 µM (inactive); in assay [15], 13.9 µM (inactive); in [3], > 100 µM (inactive); in [5] it was 76.7 µM (inactive); in assay [6], 49.7 µM (inactive). Also, the GI50 in assay [7], in assay [8], in [9], in [10], in assay [11] and in assay [16] was > 100 µM (inactive) in each case. Also, the GI50 in assay [12] is 34.5 µM (inactive); in assay [17], 21.3 µM (inactive); in assay [18] it was 62.4 µM (inactive); in [13], > 100 µM (inactive); in [14] it was 76.7 µM (inactive).

In the case of `O=C1Nc2ccccc2C(=O)O/C(Cc2ccccc2)=N\c2ccccc21`, the GI50 in assay [1] is > 100 µM (inactive); in assay [2] it was > 100 µM (inactive); in assay [15], > 100 µM (inactive); in [3], > 100 µM (inactive); in [4] it was 25.9 µM (inactive); in assay [6], > 100 µM (inactive). The GI50 in assay [7], in assay [8], in assay [9], in assay [19], in [10] and in [11] was > 100 µM (inactive) each time. The GI50 in assay [16], in [12], in assay [17], in assay [18], in [13] and in assay [14] was > 100 µM (inactive) each time.

With `COc1ccc(-c2cc(-c3ccccc3)nc3c2CC(=O)Nc2ccccc2-3)cc1OC`, the GI50 in assay [1] was 1.81 µM (inactive); in assay [15], > 100 µM (inactive); in assay [3] it was > 100 µM (inactive); in assay [4], 0.424 µM (active); in assay [5], 1.32 µM (inactive); in assay [6] it was 4.17 µM (inactive). The GI50 in assay [7] was 13.9 µM (inactive); in assay [8], > 100 µM (inactive); in [10] it was 4.79 µM (inactive); in assay [16] it was > 100 µM (inactive); in assay [12], 68.5 µM (inactive); in assay [17], > 100 µM (inactive). The GI50 in assay [18] is 8.18 µM (inactive); in assay [13], > 100 µM (inactive); in assay [14] it was > 100 µM (inactive).

For `COc1cc(OC)c(-c2oc3ccccc3c(=O)c2O)c(OC)c1`, the GI50 in assay [2] was > 57.1 µM (inactive); in [15], 3.52 µM (inactive); in assay [4] it was 6.01 µM (inactive); in assay [5] it was > 20.7 µM (inactive); in assay [6], 3.84 µM (inactive); in assay [7] it was 8.73 µM (inactive). The GI50 in assay [8] is > 100 µM (inactive); in [9] it was 4.9 µM (inactive); in [19] it was 0.867 µM (active); in [10], 13.4 µM (inactive); in [11], 3.76 µM (inactive); in [16], 17.3 µM (inactive). For the same molecule, the GI50 was 3.68 µM (inactive) in assay [12], 3.69 µM (inactive) in assay [18], 5.74 µM (inactive) in [13] and 2.55 µM (inactive) in [14].
